In brackets after ≈: the same amount, converted by molar mass. Counter-ions that a name gives are not always drawn. Like-named read-outs stand apart in the source and are kept apart here.
Assays:
[1] = system: A. anitratus, F. menigosepticum, P. vulgaris, Ps. aeruginosa, S. marcescens; experiment: Antibiotic activity compared with chlorhexidine digluconate (five strains together); type: cell-based
Protocol: (§1) The experiment was conducted according to the guide method which has been once revised and re-published by Japan Chemotherapy Association by using trypticase soy broth (BBL) as an incubation medium and heart infusion agar as a medium for determining susceptibility.

Solubility = type: physicochemical; conditions: in words
[2] = system: Flavobacterium menigosepticum RIMD 0614002; experiment: Minimum inhibitory concentration, Flavobacterium menigosepticum; type: cell-based; conditions: trypticase soy broth (BBL), heart infusion agar; for Minimum inhibitory concentration: F. menigosepticum
Protocol: as §1, with “(1) Strains employed: Flavobacterium menigosepticum RIMD 0614002 (2) Method: The” for “The”

[3] = system: Acinetobacter anitratus RIMD 0102002; experiment: Minimum inhibitory concentration, Acinetobacter anitratus; type: cell-based; conditions: trypticase soy broth (BBL), heart infusion agar; for MIC: Acinetobacter calcoaceticus, RIMD0102002, A. anitratus
Protocol: Acinetobacter anitratus RIMD 0102002
as §1

[4] = system: Pseudomonas aeruginosa IID 1117; experiment: Minimum inhibitory concentration, Pseudomonas aeruginosa; type: cell-based; conditions: trypticase soy broth (BBL), heart infusion agar; for Minimum inhibitory concentration: Ps. aeruginosa
Protocol: Pseudomonas aeruginosa IID 1117
as §1

[5] = system: Serratia marcescens IFO 12648; experiment: Minimum inhibitory concentration, Serratia marcescens; type: cell-based; conditions: S. marcescens, trypticase soy broth (BBL), heart infusion agar; for MIC: Serratia marcescens, IFO12648
Protocol: Serratia marcescens IFO 12648
as §1

[6] = system: Proteus vulgaris IFO 3045; experiment: Minimum inhibitory concentration, Proteus vulgaris; type: cell-based; conditions: trypticase soy broth (BBL), heart infusion agar; for MIC: Proteus vulgaris, IFO3045, P. vulgaris
Protocol: Proteus vulgaris IFO 3045
as §1

LD50 in mice = conditions: mouse, in vivo, route not stated
[7] = prior art, cited from earlier work; for solubility in water and alcohols: water and alcohols such as methanol and ethanol, in words

SMILES | Minimum inhibitory concentration [2] | Minimum inhibitory concentration [4] | solubility in water and alcohols [7] | MIC [3] | MIC [5] | MIC [6] | solubility in water [7] | also measured
[H]/N=C(\N/C(=N/[H])NCCCCCCNC(=N)NC(=N)Nc1ccc(Cl)cc1)Nc1ccc(Cl)cc1 [Salt of this invention, chlorhexidine di-2-pyrrolidone-5-carboxylate] | 31.3 µg/mL | 15.6 µg/mL |  |  |  |  |  | antibiotic activity [1]: more potent antibiotic activity than the known chlorhexidine digluconate; solubility in acetone, chloroform and ether (Solubility; acetone, chloroform and ether): insoluble in acetone, chloroform and ether; solubility in water and alcohols (Solubility; water and alcohols): soluble in water and alcohols; Minimum inhibitory concentration ([3]; A. anitratus): 31.3 µg/mL; Minimum inhibitory concentration [5]: 125 µg/mL; Minimum inhibitory concentration ([6]; P. vulgaris): 125 µg/mL; LD50 (LD50 in mice): ~2000 mg/kg
[H]/N=C(\N/C(=N/[H])NCCCCCCNC(=N)NC(=N)Nc1ccc(Cl)cc1)Nc1ccc(Cl)cc1 [Chlorhexidine digluconate, chlorhexidine digluconate] | 125 µg/mL | 31.3 µg/mL | superior solubility in water and alcohols | 62.5 µg/mL | 125 µg/mL | 250 µg/mL |  | 
O=C1CC[C@@H](C(=O)O)N1 [Pyrrolidone-carboxylic acid, 2-Pyrrolidone-5-carboxylic acid] |  |  |  | 4000 µg/mL (≈ 31 mM) | 4000 µg/mL (≈ 31 mM) | 4000 µg/mL (≈ 31 mM) |  | MIC ([2]; Flavobacterium, RIMD0614002, F. menigosepticum): 4000 µg/mL (≈ 31 mM); MIC ([4]; Pseudomonas aeruginosa, IID1117, Ps. aeruginosa): 4000 µg/mL (≈ 31 mM)
[H]/N=C(\N/C(=N/[H])NCCCCCCNC(=N)NC(=N)Nc1ccc(Cl)cc1)Nc1ccc(Cl)cc1 [Chlorhexidine disulfate] |  |  | sparingly soluble |  |  |  | 1 g per 10,000 ml | 
[H]/N=C(\N/C(=N/[H])NCCCCCCNC(=N)NC(=N)Nc1ccc(Cl)cc1)Nc1ccc(Cl)cc1 [Chlorhexidine diacetate] |  |  | sparingly soluble |  |  |  | 1 g per 10,000 ml | 
[H]/N=C(\N/C(=N/[H])NCCCCCCNC(=N)NC(=N)Nc1ccc(Cl)cc1)Nc1ccc(Cl)cc1 [Chlorhexidine dihydrochloride] |  |  | sparingly soluble |  |  |  | 1 g per 10,000 ml | 

From patent US4393219A, “Salt of chlorhexidine” (Maruishi Pharmaceutical Co., Ltd., priority 1981, dated 1983)
